Marks after values point to notes of the source that are not given here.
How the values were obtained:
[1] = test system: recurrent or metastatic cervical cancer; assay: Phase I expansion cohorts: cemiplimab 3 mg/kg IV Q2W alone or plus hfRT, tumor response (RECIST 1.1), PFS, OS; format: in vivo, human
From the text: The combination therapy cohort enrolled patients for whom palliative hfRT was planned to a lesion that was causing some signs or symptoms. The radiated lesion was not followed as a target lesion for response assessments.
Additional eligibility criteria included an Eastern Cooperative Oncology Group performance status score of 0 or 1, and adequate organ function. Patients were required to have at least one measurable lesion per Response Evaluation Criteria in Solid Tumors (RECIST) version 1.1. (Eisenhauer et al., Eur J Cancer 45 (2009) 228-47). In the combination therapy cohort, the measureable lesion(s) were in addition to the irradiated lesion.
Assessments: Tumor histology was assessed per local pathology reports of tumor samples obtained at any time prior to study enrollment. […] Extensive safety evaluations were performed during screening and on Day 1 of each subsequent treatment cycle throughout the study. Routine safety evaluations were performed at each cemiplimab dosing visit. Tumor response assessments were performed by investigators, per RECIST 1.1, at the end of each 8-week treatment cycle. In combination therapy cohorts, the lesions selected for hfRT were not included in RECIST 1.1 assessments.
Statistical analysis of clinical data: The safety summaries and analyses were performed on the safety analysis set. Data were summarized using descriptive statistics, along with two-sided 95% confidence interval (CI), by dose cohort. Continuous variables were summarized with mean, median, standard deviation, minimum, and maximum. Categorical variables were summarized with frequency and percentage. Kaplan-Meier analysis was performed for progression-free survival (PFS) and OS.

[2] = test system: recurrent or metastatic cervical cancer; assay: Phase 3 trial, cemiplimab versus IC chemotherapy: quality of life, EORTC QLQ-C30 (GHS/QoL, functioning and symptom scales), MMRM LS mean change from baseline; format: in vivo, human; conditions: for Overall difference in LS mean change from baseline (95% CI), GHS/QoL / Overall difference in LS mean change from baseline (95% CI), Physical functioning / Overall difference in LS mean change from baseline (95% CI), Role functioning: EORTC QLQ-C30, positive numbers favor cemiplimab; for Overall difference in LS mean change from baseline (95% CI), GHS/QoL / Overall difference in LS mean change from baseline (95% CI), Physical functioning / Overall difference in LS mean change from baseline (95% CI), Role functioning / Overall difference in LS mean change from baseline (95% CI), Appetite loss / Overall difference in LS mean change from baseline (95% CI), Fatigue / Overall difference in LS mean change from baseline (95% CI), Pain: cemiplimab minus chemotherapy; for Overall difference in LS mean change from baseline (95% CI), Appetite loss / Overall difference in LS mean change from baseline (95% CI), Fatigue / Overall difference in LS mean change from baseline (95% CI), Pain: EORTC QLQ-C30 symptom scale, negative numbers favor cemiplimab; for Difference in LS mean change, Cemiplimab versus Chemotherapy, GHS/QoL / Difference in LS mean change, Cemiplimab versus Chemotherapy, Physical Functioning / LS mean change from baseline, EORTC QLQ-C30 GHS/QoL / LS mean change from baseline, EORTC QLQ-C30 Physical Functioning: SCC patients
Method: QOL is measured by the EORTC QLQ-C30.
Quality of Life Questionnaires: Patient-reported outcomes are measured using the validated patient self-administered EORTC QLQ-C30 questionnaire. Patients are asked to complete these questionnaires prior to any study procedures being performed at a given study visit (during the on-study/treatment and follow-up periods).
QoL: Longitudinal change from baseline at each PRO assessment in the GHS/QoL and PF scales was analyzed using a mixed model with repeated measures (MMRM). Higher scores on these scales indicate better health status/function. […] The model generated least squares (LS) mean estimates, standard errors, 95% CIs and p-values (where applicable) for mean changes from baseline on each PRO assessment.
At baseline and Day 1 of each treatment cycle (up to 16), patients were administered the EORTC QLQ-030. Mixed-effects repeated measures models estimated least squares (LS) mean change from baseline across all scales. Responder analyses determined the proportions with clinically meaningful (using 10-point threshold) improvement or deterioration, or stability on QLQ-030.

[3] = investigator assessment, n = 10 per cohort

## cemiplimab
[1]; 4/23 combined: dose escalation plus expansion cohorts
  objective response rate among cervical cancer patients enrolled in the phase I study: 17%
[1]; both expansion cohorts combined
  responding patients in expansion cohorts: 2/20
[1]; includes missing and unknown tumor response, n = 10 per cohort
  NE (not evaluable), n (%): 1 n (%)
[1]; investigator assessment, RECIST 1.1, n = 10 per cohort
  ORR, % (95% CI): 10.0%
[1]; [3]
  Partial response, n (%): 1 n (%)
  Progressive disease, n (%): 5 n (%)
  Stable disease, n (%): 3 n (%)
[1]; n = 10 per cohort
  Kaplan-Meier estimation of median OS: 10.3 months
  Kaplan-Meier estimation of median PFS: 1.9 months
  patients with best response of stable disease: 30%
[1]; objective response or stable disease, n = 10 per cohort
  Disease control rate, % (95% CI): 40.0%
[1]; one patient in each cohort of 10
  patients with partial response: 10%
[1]; one responder in each group
  DOR (duration of response): 11.2 months
  Observed time to response: 1.8 months
[1]; without progression for at least 16 weeks (105 days), n = 10 per cohort
  Durable disease control rate, % (95% CI): 20.0%
[2]; AC (post-hoc)
  Overall difference in LS mean change from baseline (95% CI), GHS/QoL: 2.0 (−5.4; 9.3)
  Overall difference in LS mean change from baseline (95% CI), Physical functioning: 2.6 (−4.3; 9.5)
  Overall difference in LS mean change from baseline (95% CI), Role functioning: 8.3 (−0.0; 16.6)
  Overall difference in LS mean change from baseline (95% CI), Appetite loss: −5.9 (−19.8; 2.4)
  Overall difference in LS mean change from baseline (95% CI), Fatigue: −5.9 (−13.9; 2.2)
  Overall difference in LS mean change from baseline (95% CI), Pain: −7.6 (−17.1; 1.9)
[2]; Overall population
  Overall difference in LS mean change from baseline (95% CI), GHS/QoL: 7.8 (3.3; 12.3)*
  Overall difference in LS mean change from baseline (95% CI), Physical functioning: 8.3 (4.3; 12.2)*
  Overall difference in LS mean change from baseline (95% CI), Role functioning: 13.1 (8.3; 17.9)^‡
  Overall difference in LS mean change from baseline (95% CI), Appetite loss: −11.3 (−16.6; −6.0)^‡
  Overall difference in LS mean change from baseline (95% CI), Fatigue: −9.1 (−14.1; −4.0)^‡
  Overall difference in LS mean change from baseline (95% CI), Pain: −10.2 (−16.2; −4.3)^‡
[2]; SCC
  Overall difference in LS mean change from baseline (95% CI), GHS/QoL: 8.5 (3.8; 13.2)^†
  Overall difference in LS mean change from baseline (95% CI), Physical functioning: 8.4 (4.1; 12.6)^†
  Overall difference in LS mean change from baseline (95% CI), Role functioning: 11.4 (6.3; 16.6)^‡
  Overall difference in LS mean change from baseline (95% CI), Appetite loss: −10.9 (−16.6; −5.2)^‡
  Overall difference in LS mean change from baseline (95% CI), Fatigue: −8.6 (−14.0; −3.3)^‡
  Overall difference in LS mean change from baseline (95% CI), Pain: −10.4 (−16.9; −3.8)^‡
[2]; C2D1
  Difference in LS mean change, Cemiplimab versus Chemotherapy, GHS/QoL: 4.14
  Difference in LS mean change, Cemiplimab versus Chemotherapy, Physical Functioning: 4.09
  LS mean change from baseline, EORTC QLQ-C30 GHS/QoL: −2.02
  LS mean change from baseline, EORTC QLQ-C30 Physical Functioning: −1.82
[2]; C3D1
  Difference in LS mean change, Cemiplimab versus Chemotherapy, GHS/QoL: 9.41
  Difference in LS mean change, Cemiplimab versus Chemotherapy, Physical Functioning: 7.33
  LS mean change from baseline, EORTC QLQ-C30 GHS/QoL: 1.18
  LS mean change from baseline, EORTC QLQ-C30 Physical Functioning: 2.10
[2]; C4D1
  Difference in LS mean change, Cemiplimab versus Chemotherapy, GHS/QoL: 12.36
  Difference in LS mean change, Cemiplimab versus Chemotherapy, Physical Functioning: 10.41
  LS mean change from baseline, EORTC QLQ-C30 GHS/QoL: 5.15
  LS mean change from baseline, EORTC QLQ-C30 Physical Functioning: 5.21
[2]; C5D1
  Difference in LS mean change, Cemiplimab versus Chemotherapy, GHS/QoL: 6.94
  Difference in LS mean change, Cemiplimab versus Chemotherapy, Physical Functioning: 6.86

— patent US20210403567A1, “METHODS OF TREATING CERVICAL CANCER BY ADMINISTERING A PD-1 INHIBITOR” (priority 2020, published 2021)
